Measurements taken from patent US20250212875A1, “PESTICIDAL AND HERBICIDAL COMPOUNDS AND METHODS OF USE THEREOF” (AG PLENUS LTD, priority 2022, published 2025).

Legend:
[1] = system: Alopecurus myosuroides; test: LTP pre-emergence greenhouse screen; format: in vivo
Experimental: (§1) Sowing was performed one day before application.
(§2) Percentage of emergence was evaluated at 15 DAA.

[2] = system: Amaranthus palmeri; test: LTP pre-emergence greenhouse screen; format: in vivo
Experimental: as §1, §2

[3] = system: Lolium perenne; test: LTP pre-emergence greenhouse screen; format: in vivo
Experimental: as §1, §2

[4] = system: Matricaria chamomilla; test: LTP pre-emergence greenhouse screen; format: in vivo
Experimental: as §1, §2

[5] = system: Poa annua; test: LTP pre-emergence greenhouse screen; format: in vivo
Experimental: as §1, §2

[6] = system: Arabidopsis thaliana; test: HTPS post-emergence on miniature dicot model plants; format: in vivo; conditions: green area (RGB), maximal concentration 1.5 kg/ha, read-out: Max inhibition (%)
Experimental: Arabidopsis thaliana seeds were sown in 96 well plates filled with irrigated Sweet sand (10%>clay) that is washed from salts and minerals using tap water. 5-10 seeds were sown in the center of each well. 7-8 days post sowing, at 2 true leaves stage, thinning out was performed to ensure that compound application is done on a single plant per well. The plates were placed in a controlled greenhouse in a random order inside a bath which allows flooding irrigation with tap water supplemented with a fertilizer. Applied compounds were dissolved into a final solution of 50% acetone, 49.9% DDW, 0.1% tween-20. A 96 well plate was used as a stock plate for preparing application solutions for 8 repeats. Each row contained different concentrations per chemical. Maximal concentration for application was 1.5 kg/ha and dilution factor is 2.5. Chemical application was performed one day after thinning out in a chemical hood. 5 μL applied on first two true leaves in each well using 12 channel pipettes. Data collection: RGB (red, green, blue) data for green area per well was documented using camera. Data is collected at a few time points during the experiment: one day after thinning and before chemical application, two-, six- or nine-days post application. During the last two documentations, visual phenotyping was performed. Data analysis: Given RGB results and visual phenotype scores, a student t-test conducted to compare between treatment and control performance for continuous data (RGB) and Fisher exact test to analyze the non-continuous data (phenotypic scores). Dose-Response curves are generated for each treatment to infer ED50 and max. inhibition parameters, using treatment's log concentration range as the […] variable and normalized green area. Plate imaging performed at 11 and 18 DAA. RGB data for green area per well was documented and used to extract % inhibition. Dose-Response curves were built for each treatment to infer EC50, EC75 and EC90 parameters, using treatment's log concentration range as the independent variable and normalized green area as the dependent variable. Treatments were compared to controls performance given RGB results and using student's t-test (p-val≤0.05). Compounds 101, 110, 112, 119, 124, 125, 146, 154, 157, 172, 170, 169, 112, and 166 were applied in either or both pre- and post-emergence mode to either or both monocot and dicot model plants, following the methods described above. The compounds were applied as a gradient of concentrations as listed above, from which the ED50 was calculated.

[7] = system: monocot and eudicot weeds species; test: LTP weed panel, summary in words; format: in vivo; conditions: for growth inhibition (in words): mainly in pre-emergence applications
[8] = system: Setaria viridis; test: LTP post-emergence greenhouse screen
Experimental: (§4) A basic panel of eight weed species (Table 3) sowed in 4×4×7 cm plastic pots containing a garden mix (klasmann). Each specie was sowed in a separate pot. In each pot, 10-15 seeds were sowed according to the specie viability. Timing of application determined at a 1-2 true leaf stage. The plants grew for 30 days in a controlled greenhouse (26±2° C. day, 20±2° C. night). Flood irrigation (tap water+Shefer 5:3:8 8 mM) was given at a 50% water content by weight. Two days before application, the tested plants thinned down to three plants per pot. Compounds were soluble in water (DDW), and commercial herbicide control was soluble in formulation B (Table 4). Before application, 1% (v/v) crop oil and 0.02% (v/v) surfactant (Tergitol™ 15-S-7) were added to the solution. Application was conducted with an industrial sprayer (TeeJet 6502E nozzle) at a rate of 2 kg/ha and spray volume of 4801/ha. Plants were evaluated at 3 time points (4, 8, 12 days after application (DAA)). At each time point, visual phenotyping was recorded using a scale of 0-6 (0: no visible effect, 6: maximum effect). At 12 DAA, plants foliage was harvested, dried and weighed for dry weight analysis.
(§5) Post-emergence advanced wide panel experiment included 24 weed species (Table 5). Application was conducted at 2 rates of 2 kg/ha and 0.25 kg/ha and spray volume of 480 l/ha. Visual phenotyping was recorded at 4, 11, 17 and 20 DAA using a scale of 0-6 (0: no visible effect, 6: maximum effect). At 21 DAA, plants foliage was harvested, dried, and weighed for dry weight analysis. All experiments included an untreated control, a solvent control, and a positive control (commercial herbicide A.I.). Statistical analysis for visual phenotyping determined by a median value of ≥3.5 and Fisher test (pval≤0.05). Statistical analysis for dry weight determined by % inhibition ≥50 and T test (pval≤0.05), as well as Wilcox test (pval≤0.05).

[9] = system: Poa annua; test: LTP post-emergence greenhouse screen
Experimental: as §4, §5

[10] = system: Amaranthus palmeri; test: LTP post-emergence greenhouse screen
Experimental: (§6) A basic panel of eight weed species (Table 3) sowed in 4×4×7 cm plastic pots containing a garden mix (klasmann). Each specie was sowed in a separate pot. In each pot, 10-15 seeds were sowed according to the specie viability. Timing of application determined at a 1-2 true leaf stage. The plants grew for 30 days in a controlled greenhouse (26±2° C. day, 20±2° C. night). Flood irrigation (tap water+Shefer 5:3:8 8 mM) was given at a 50% water content by weight. Two days before application, the tested plants thinned down to three plants per pot. Compounds were soluble in water (DDW), and commercial herbicide control was soluble in formulation B (Table 4). Before application, 1% (v/v) crop oil and 0.02% (v/v) surfactant (Tergitol™ 15-S-7) were added to the solution. […] Plants were evaluated at 3 time points (4, 8, 12 days after application (DAA)). At each time point, visual phenotyping was recorded using a scale of 0-6 (0: no visible effect, 6: maximum effect). […]
(§7) All experiments included an untreated control, a solvent control, and a positive control (commercial herbicide A.I.). Statistical analysis for visual phenotyping determined by a median value of ≥3.5 and Fisher test (pval≤0.05). Statistical analysis for dry weight determined by % inhibition ≥50 and T test (pval≤0.05), as well as Wilcox test (pval≤0.05).

[11] = system: Echinochloa colona; test: LTP pre-emergence greenhouse screen; format: in vivo
Experimental: as §1, §2

[12] = system: Eragrostis teff; test: HTPS pre-emergence on monocot model plants; format: in vivo; conditions: green area (RGB)
Experimental: A 96 well plate was used as a stock plate for preparing application solutions for 8 repeats. Each row contained different concentrations per chemical. Maximal concentration for application was 1.5 kg/ha and dilution factor is 2.5. Chemical application was performed one day after thinning out in a chemical hood. 5 μL applied on first two true leaves in each well using 12 channel pipettes. Data collection: RGB (red, green, blue) data for green area per well was documented using camera. Data is collected at a few time points during the experiment: one day after thinning and before chemical application, two-, six- or nine-days post application. During the last two documentations, visual phenotyping was performed. Data analysis: Given RGB results and visual phenotype scores, a student t-test conducted to compare between treatment and control performance for continuous data (RGB) and Fisher exact test to analyze the non-continuous data (phenotypic scores). Dose-Response curves are generated for each treatment to infer ED50 and max. inhibition parameters, using treatment's log concentration range as the […] variable and normalized green area.
These experiments are conducted similarly except that either Arabidopsis thaliana or Eragrostis teff seeds were sowed (5-10 or 5-7, respectively), plant thinning out was not performed, compound dissolved into a final solution of 50% acetone, 49.9% DDW, compound application was done at 30 μL volume per well directly on sowed soil before plant emergence and data was collected 10 or 7 days after chemical application on dicot or monocot plants, respectively.
Plate imaging performed at 11 and 18 DAA. RGB data for green area per well was documented and used to extract % inhibition. […]
(§3) Compounds 101, 110, 112, 119, 124, 125, 146, 154, 157, 172, 170, 169, 112, and 166 were applied in either or both pre- and post-emergence mode to either or both monocot and dicot model plants, following the methods described above. The compounds were applied as a gradient of concentrations as listed above, from which the ED50 was calculated.

[13] = system: Amaranthus retroflexus; test: LTP pre-emergence greenhouse screen; format: in vivo
Experimental: as §1, §2

[14] = system: Amaranthus tuberculatus; test: LTP post-emergence greenhouse screen; format: in vivo
[15] = system: monocot and dicot model plants; test: HTPS model plants, summary in words; format: in vivo; conditions: HTPS systems where they were tested
Experimental: Arabidopsis thaliana seeds were sown in 96 well plates filled with irrigated Sweet sand (10%>clay) that is washed from salts and minerals using tap water. 5-10 seeds were sown in the center of each well. 7-8 days post sowing, at 2 true leaves stage, thinning out was performed to ensure that compound application is done on a single plant per well. The plates were placed in a controlled greenhouse in a random order inside a bath which allows flooding irrigation with tap water supplemented with a fertilizer. Applied compounds were dissolved into a final solution of 50% acetone, 49.9% DDW, 0.1% tween-20.
A 96 well plate was used as a stock plate for preparing application solutions for 8 repeats. Each row contained different concentrations per chemical. Maximal concentration for application was 1.5 kg/ha and dilution factor is 2.5. Chemical application was performed one day after thinning out in a chemical hood. 5 μL applied on first two true leaves in each well using 12 channel pipettes. […]
as §3

[16] = system: Galium aparine; test: LTP post-emergence greenhouse screen
Experimental: as §6, §7

Row | SMILES | IG: inhibited growth [1] | IG: inhibited growth [2] | IG: inhibited growth [4] | IG: inhibited growth [5] | inhibition at up to 1500 g/ha [6] [%] | growth inhibition (in words) [7] | further results
1 | NC1(C/C=C/CC(=O)O)CCC1 [Compound 125] | IG (60) | IG (80) | IG (60) | IG (100) | 100 | very good to moderate growth inhibition | IG: inhibited growth [3]: IG (80); IG: inhibited growth [8]: IG (60); IG: inhibited growth [9]: IG (60); IG: inhibited growth [10]: IG (60)
2 | NC1CCC/C(=C\CCC(=O)O)C1 (stereo not shown) [Compound 119] | – | IG (80) | – | – | 100 | very good to moderate growth inhibition | IG: inhibited growth [11]: IG (60)
3 | NC(C/C=C/CC(=O)O)C1CC1 (stereo not shown) [Compound 146] | IG (60) | IG (80) | – | IG (60) | 100 | very good to moderate growth inhibition | Max inhibition (%) [12]: 100%
4 | CC(O)C(N)/C=C/CCC(=O)O (stereo not shown) [Compound 172] | – | – | – | – | 100 | – | –
5 | CC(N)CCC/C=C/C(=O)O (stereo not shown) [Compound 170] | – | – | – | – | 100 | – | IG: inhibited growth [13]: IG (90)
6 | C[C@@H](O)[C@@H](N)/C=C/C=C/C(=O)O [Compound 110] | – | IG (80) | IG (60) | IG (60) | 100 | – | Drd: disturbed root growth [14]: Drd (80); activity on dicots and monocots (in words) ([7]; applied pre-emergence): good to moderate activity; control (in words) [15]: excellent to very good control; Bl: bleaching [16]: Bl (60)
